# Assay results reported in patent US10280145B2 (Toray Industries, Inc., priority 2015, dated 2019).
# Target: T1, intracellular domain of DDR1 (Homo sapiens, UniProt Q08345)
# T1 construct: the intracellular domain of DDR1 (in a final concentration of 5 ng/μL) (Carna Biosciences, Inc.); purchased Carna Biosciences, Inc
# Experiment: Evaluation of DDR1 inhibition activity with HTRF KinEASE-TK kit
# Assay type: biochemical
# Conditions: DDR1 intracellular domain 5 ng/μL, ATP 25 μm/L, TK Substrate-biotin 1000 nmol/L, room temperature, one hour
# Procedure: The DDR1 inhibition activity in the compounds of Examples 1 to 80 was evaluated with HTRF® KinEASE-TK kit (Cisbio Bioassays).
# Each test substance was dissolved in dimethyl sulfoxide and then used for the evaluation as described below. Moreover, each of test substances and reagents was diluted in the kinase buffer (Cisbio Bioassays) prepared by adding thereto MgCl2, MnCl2, DTT, and the Supplemental Enzyme buffer (Cisbio Bioassays) to concentrations of 5 mmol/L, 0.5 mmol/L, 0.25 mmol/L, and 50 nmol/L, respectively, and then used. Each test substance (in DMSO in a final concentration of 1%), the intracellular domain of DDR1 (in a final concentration of 5 ng/μL) (Carna Biosciences, Inc.), the phosphate donor ATP (in final concentration of 25 μm/L) (Sigma), and the substrate TK Substrate-biotin (in a final concentration of 1000 nmol/L) (Cisbio Bioassays) were added to a 384-well black plate (Corning) and allowed to react at room temperature for one hour. After completion of the reaction, the TK Antibody-Cryptate (Cisbio Bioassays) and the Streptavidin-XL665 (Cisbio Bioassays) were added thereto and allowed to react at room temperature for one hour. In addition, the plate was provided with a well to which a test substance was not added, and with a well to which a test substance and the intracellular domain of DDR1 were […].
# The fluorescence intensity in each well was measured using a multi-label counter (Envision, PerkinElmer; excitation wavelength: 320 nm, measurement wavelength: 665 nm and 620 nm) to calculate a ratio (the fluorescence intensity at 665 nm/the fluorescence intensity at 620 nm). The inhibition rate (%) of a test substance at each concentration was calculated based on the formula below: Inhibition rate (%)=([the ratio obtained from the well containing no test substance]−[the ratio from a well containing a test substance])/([the ratio obtained from the well containing no test substance]−[the ratio obtained from the well containing no intracellular domain of DDR1 and no test substance])×100.
# The calculated inhibition rates were fitted to a sigmoidal dose-response curve by regression analysis using the Prism 5.04 (GraphPad Software, Inc.) to calculate the IC50 value of the test substance.
# T1 sequence (Q08345 439-913 limits assumed): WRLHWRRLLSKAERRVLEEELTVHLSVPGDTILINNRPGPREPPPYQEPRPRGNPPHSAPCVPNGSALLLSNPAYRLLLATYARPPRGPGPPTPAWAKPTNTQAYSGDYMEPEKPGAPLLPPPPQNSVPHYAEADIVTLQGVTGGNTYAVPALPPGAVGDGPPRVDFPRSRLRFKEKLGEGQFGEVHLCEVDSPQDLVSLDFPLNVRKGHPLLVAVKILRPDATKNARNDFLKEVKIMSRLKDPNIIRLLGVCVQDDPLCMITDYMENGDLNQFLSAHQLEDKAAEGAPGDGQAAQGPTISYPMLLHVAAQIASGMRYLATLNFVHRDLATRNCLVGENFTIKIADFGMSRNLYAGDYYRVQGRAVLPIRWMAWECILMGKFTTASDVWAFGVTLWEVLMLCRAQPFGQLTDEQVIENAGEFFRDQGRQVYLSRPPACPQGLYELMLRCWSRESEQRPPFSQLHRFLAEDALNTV
row,Compound,IC50
1,1-(2-(oxetan-3-yloxy)-5-(trifluoromethoxy)phenyl)-3-(trans-4-(pyridin-4-ylmethoxy)cyclohexyl)urea [Example 30],50.4 nM
2,"COc1ccc(OC(F)(F)F)cc1NC(=O)N[C@H]1CC[C@H](Oc2ccnc(N3CCOCC3)n2)CC1 [Example 1, 1-(2-methoxy-5-(trifluoromethoxy)phenyl)-3-(trans-4-((2-morpholinopyrimidin-4-yl)oxy)cyclohexyl)urea]",476 nM
3,"COc1ccc(OC(F)(F)F)cc1NC(=O)N[C@H]1CC[C@H](Oc2ccncn2)CC1 [Example 2, 1-(2-methoxy-5-(trifluoromethoxy)phenyl)-3-(trans-4-(pyrimidin-4-yloxy)cyclohexyl)urea]",229 nM
4,"CNc1nccc(O[C@H]2CC[C@H](NC(=O)Nc3cc(OC(F)(F)F)ccc3OC)CC2)n1 [Example 3, 1-(2-methoxy-5-(trifluoromethoxy)phenyl)-3-(trans-4-((2-(methylamino)pyrimidin-4-yl)oxy)cyclohexyl)urea]",141 nM
5,"COc1ccc(S(F)(F)(F)(F)F)cc1NC(=O)N[C@H]1CC[C@H](Oc2ccnc(N3CCOCC3)n2)CC1 [Example 4, 1-(2-methoxy-5-(pentafluorosulfanyl)phenyl)-3-(trans-4-((2-morpholinopyrimidin-4-yl)oxy)cyclohexyl)urea]",427 nM
6,"COc1c(CO)cc(S(F)(F)(F)(F)F)cc1NC(=O)N[C@H]1CC[C@H](Oc2ccnc(N3CCOCC3)n2)CC1 [Example 5, 1-(3-(hydroxymethyl)-2-methoxy-5-(pentafluorosulfanyl)phenyl)-3-(trans-4-((2-morpholinopyrimidin-4-yl)oxy)cyclohexyl)urea]",65.9 nM
7,"COc1c(CO)cc(C(F)(F)F)cc1NC(=O)N[C@H]1CC[C@H](Oc2ccnc(N3CCOCC3)n2)CC1 [Example 6, 1-(3-(hydroxymethyl)-2-methoxy-5-(trifluoromethyl)phenyl)-3-(trans-4-((2-morpholinopyrimidin-4-yl)oxy)cyclohexyl)urea]",62.2 nM
8,"O=C(Nc1cc(C(F)(F)F)ccc1OC1COC1)N[C@H]1CC[C@H](Oc2ccnc(N3CCOCC3)n2)CC1 [Example 7, 1-(trans-4-((2-morpholinopyrimidin-4-yl)oxy)cyclohexyl)-3-(2-(oxetan-3-yloxy)-5-(trifluoromethyl)phenyl)urea]",111 nM
9,"O=C1CN(c2ccc(C(F)(F)F)cc2NC(=O)N[C@H]2CC[C@H](Oc3ccnc(N4CCOCC4)n3)CC2)CCN1 [Example 8, 1-(trans-4-((2-morpholinopyrimidin-4-yl)oxy)cyclohexyl)-3-(2-(3-oxopiperazin-1-yl)-5-(trifluoromethyl)phenyl)urea]",46.3 nM
10,"COc1ccc(OC(F)(F)F)cc1NC(=O)N[C@H]1CC[C@H](Oc2ncccn2)CC1 [Example 9, 1-(2-methoxy-5-(trifluoromethoxy)phenyl)-3-(trans-4-(pyrimidin-2-yloxy)cyclohexyl)urea]",349 nM
11,"COc1ccc(S(F)(F)(F)(F)F)cc1NC(=O)N[C@H]1CC[C@H](Oc2ncccn2)CC1 [Example 10, 1-(2-methoxy-5-(pentafluorosulfanyl)phenyl)-3-(trans-4-(pyrimidin-2-yloxy)cyclohexyl)urea]",167 nM
12,"COc1ccc(C(F)(F)F)cc1NC(=O)N[C@H]1CC[C@H](Oc2ncccn2)CC1 [Example 11, 1-(2-methoxy-5-(trifluoromethyl)phenyl)-3-(trans-4-(pyrimidin-2-yloxy)cyclohexyl)urea]",384 nM
13,"COc1c(CO)cc(C(F)(F)F)cc1NC(=O)N[C@H]1CC[C@H](Oc2ncccn2)CC1 [Example 12, 1-(3-(hydroxymethyl)-2-methoxy-5-(trifluoromethyl)phenyl)-3-(trans-4-(pyrimidin-2-yloxy)cyclohexyl)urea]",96.7 nM
14,"O=C(Nc1cc(C(F)(F)F)ccc1OC1COC1)N[C@H]1CC[C@H](Oc2ncccn2)CC1 [Example 13, 1-(2-(oxetan-3-yloxy)-5-(trifluoromethyl)phenyl)-3-(trans-4-(pyrimidin-2-yloxy)cyclohexyl)urea]",57.6 nM
15,"O=C(Nc1cc(S(F)(F)(F)(F)F)ccc1OC1COC1)N[C@H]1CC[C@H](Oc2ncccn2)CC1 [Example 14, 1-(2-(oxetan-3-yloxy)-5-(pentafluorosulfanyl)phenyl)-3-(trans-4-(pyrimidin-2-yloxy)cyclohexyl)urea]",76.7 nM
16,"O=C1CN(c2ccc(C(F)(F)F)cc2NC(=O)N[C@H]2CC[C@H](Oc3ncccn3)CC2)CCN1 [Example 15, 1-(2-(3-oxopiperazin-1-yl)-5-(trifluoromethyl)phenyl)-3-(trans-4-(pyrimidin-2-yloxy)cyclohexyl)urea]",72.4 nM

row,Compound,IC50
1,COc1ccc(OC(F)(F)F)cc1NC(=O)N[C@H]1CC[C@H](Oc2ccc(-c3ccccc3)nn2)CC1 [Example 16],963 nM
2,"COc1c(CO)cc(C(F)(F)F)cc1NC(=O)N[C@H]1CC[C@H](Oc2ccc(-c3ccccc3)nn2)CC1 [Example 17, 1-(3-(hydroxymethyl)-2-methoxy-5-(trifluoromethyl)phenyl)-3-(4-((6-phenylpyridazin-3-yl)oxy)cyclohexyl)urea]",189 nM
3,"COc1ccc(OC(F)(F)F)cc1NC(=O)N[C@H]1CC[C@H](Oc2cccnc2)CC1 [Example 18, 1-(2-methoxy-5-(trifluoromethoxy)phenyl)-3-(trans-4-(pyridin-3-yloxy)cyclohexyl)urea]",162 nM
4,"COc1ccc(OC(F)(F)F)cc1NC(=O)N[C@H]1CC[C@H](OCc2ccncc2)CC1 [Example 19, 1-(2-methoxy-5-(trifluoromethoxy)phenyl)-3-(trans-4-(pyridin-4-ylmethoxy)cyclohexyl)urea]",46.2 nM
5,"O=C(Nc1cc(CO)cc(C(F)(F)F)c1)N[C@H]1CC[C@H](OCc2ccncc2)CC1 [Example 20, 1-(3-(hydroxymethyl)-5-(trifluoromethyl)phenyl)-3-(trans-4-(pyridin-4-ylmethoxy)cyclohexyl)urea]",114 nM
6,"COc1c(CO)cc(C(F)(F)F)cc1NC(=O)N[C@H]1CC[C@H](OCc2ccncc2)CC1 [Example 21, 1-(3-(hydroxymethyl)-2-methoxy-5-(trifluoromethyl)phenyl)-3-(trans-4-(pyridin-4-ylmethoxy)cyclohexyl)urea]",39.3 nM
7,"O=C(Nc1cccc(C(F)(F)F)c1)N[C@H]1CC[C@H](OCc2ccncc2)CC1 [Example 22, 1-(trans-4-(pyridin-4-ylmethoxy)cyclohexyl)-3-(3-(trifluoromethyl)phenyl)urea]",234 nM
8,"O=C(Nc1ccc(CO)c(C(F)(F)F)c1)N[C@H]1CC[C@H](OCc2ccncc2)CC1 [Example 23, 1-(4-(hydroxymethyl)-3-(trifluoromethyl)phenyl)-3-(trans-4-(pyridin-4-ylmethoxy)cyclohexyl)urea]",402 nM
9,"COc1ccc(C(F)(F)F)cc1NC(=O)N[C@H]1CC[C@H](OCc2ccncc2)CC1 [Example 24, 1-(2-methoxy-5-(trifluoromethyl)phenyl)-3-(trans-4-(pyridin-4-ylmethoxy)cyclohexyl)urea]",124 nM
10,"Cc1ccc(C(F)(F)F)cc1NC(=O)N[C@H]1CC[C@H](OCc2ccncc2)CC1 [Example 25, 1-(2-methyl-5-(trifluoromethyl)phenyl)-3-(trans-4-(pyridin-4-ylmethoxy)cyclohexyl)urea]",421 nM
11,"COc1ccc(S(F)(F)(F)(F)F)cc1NC(=O)N[C@H]1CC[C@H](OCc2ccncc2)CC1 [Example 26, 1-(2-methoxy-5-(pentafluorosulfanyl)phenyl)-3-(trans-4-(pyridin-4-ylmethoxy)cyclohexyl)urea]",82.7 nM
12,"O=C(Nc1cc(C(F)(F)F)ccc1F)N[C@H]1CC[C@H](OCc2ccncc2)CC1 [Example 27, 1-(2-fluoro-5-(trifluoromethyl)phenyl)-3-(trans-4-(pyridin-4-ylmethoxy)cyclohexyl)urea]",258 nM
13,"O=C(Nc1cc(C(F)(F)F)ccc1N1CCOCC1)N[C@H]1CC[C@H](OCc2ccncc2)CC1 [Example 28, 1-(2-morpholino-5-(trifluoromethyl)phenyl)-3-(trans-4-(pyridin-4-ylmethoxy)cyclohexyl)urea]",103 nM
14,"O=C(Nc1cc(C(F)(F)F)ccc1Cl)N[C@H]1CC[C@H](OCc2ccncc2)CC1 [Example 29, 1-(2-chloro-5-(trifluoromethyl)phenyl)-3-(trans-4-(pyridin-4-ylmethoxy)cyclohexyl)urea]",133 nM
15,"O=C(Nc1cc(C(F)(F)F)ccc1OC1CNC1)N[C@H]1CC[C@H](OCc2ccncc2)CC1 [Example 31, 1-(2-(azetidin-3-yloxy)-5-(trifluoromethyl)phenyl)-3-(trans-4-(pyridin-4-ylmethoxy)cyclohexyl)urea]",76.7 nM
